# Data: patent publication US9249155B2, “Thieno [2, 3-D] pyrimidine derivatives and their use to treat arrhythmia” (XENTION LIMITED, priority 2011, dated 2016)
# pIC50: −log10 of the molar value.
# Tests used:
# hKv1.5 = molecular target: T1, hKv1.5 (Homo sapiens, UniProt P22460); experiment: Kv1.5 electrophysiology, whole cell patch clamp; type: cell-based; conditions: CHO stably transfected with hKv1.5, whole cell patch clamp, room temperature
# T1 construct: expressed in transfected cells; host or cells: CHO
# Experimental: The ability of the compounds of the invention to inhibit the Kv1.5 potassium channel was measured in an electrophysiology experiment, using recombinant cells expressing the channel of interest in a whole cell patch clamp experiment.
# The external bathing solution contained (in mM): 150 NaCl, 10 KCl, 3 MgCl2, 1 CaCl2, HEPES, pH 7.4. Patch pipettes were filled with an electrode solution of composition (in mM): 160 KCl, 0.5 MgCl2, 10 HEPES, 1 EGTA, pH 7.2 with KOH.
# Compounds were dissolved in DMSO (100%) and freshly made up in the external bather at the desired concentration (final DMSO concentration=0.1%). All experiments were conducted at room temperature.
# For whole-cell patch-clamp studies cells (CHO stably transfected with hKv1.5) were seeded onto glass coverslips before recordings were made. Cells were seeded in sterile 30 mm Petri dishes at a density to enable isolated cells to be selected for patch clamp experiments. The dishes were stored in a humidified, gassed (5% CO2) incubator at 37° C. until use.
# Whole-cell patch-clamp recordings of membrane currents were made following gigaohm seal formation between the patch electrode and the cell using HEKA EPC-9/10 amplifiers controlled by Pulse Software (Ver8.5x/8.6x, HEKA, Germany). Coverslips seeded with cells were placed in a recording chamber mounted on the stage of an inverted microscope. During the experiment the cell of interest was continuously superfused with bather solution delivered via a cannula placed in close proximity to the cell to enable control of the extracellular solution environment. Only those cells with a current>500 pA were used for experiments. […]
# Electrophysiology voltage-step protocols and analysis of data was performed as follows. […] Mean currents during 75-95% of the depolarising step to 0 mV were analysed using Pulsefit software (v8.x, HEKA, Germany). […] The test substance was allowed to equilibrate during which time voltage protocol was repeatedly applied and recorded. Percentage inhibition of the current in the presence of test substance was calculated relative to the control pre-drug value.
# T1 sequence (P22460 whole entry): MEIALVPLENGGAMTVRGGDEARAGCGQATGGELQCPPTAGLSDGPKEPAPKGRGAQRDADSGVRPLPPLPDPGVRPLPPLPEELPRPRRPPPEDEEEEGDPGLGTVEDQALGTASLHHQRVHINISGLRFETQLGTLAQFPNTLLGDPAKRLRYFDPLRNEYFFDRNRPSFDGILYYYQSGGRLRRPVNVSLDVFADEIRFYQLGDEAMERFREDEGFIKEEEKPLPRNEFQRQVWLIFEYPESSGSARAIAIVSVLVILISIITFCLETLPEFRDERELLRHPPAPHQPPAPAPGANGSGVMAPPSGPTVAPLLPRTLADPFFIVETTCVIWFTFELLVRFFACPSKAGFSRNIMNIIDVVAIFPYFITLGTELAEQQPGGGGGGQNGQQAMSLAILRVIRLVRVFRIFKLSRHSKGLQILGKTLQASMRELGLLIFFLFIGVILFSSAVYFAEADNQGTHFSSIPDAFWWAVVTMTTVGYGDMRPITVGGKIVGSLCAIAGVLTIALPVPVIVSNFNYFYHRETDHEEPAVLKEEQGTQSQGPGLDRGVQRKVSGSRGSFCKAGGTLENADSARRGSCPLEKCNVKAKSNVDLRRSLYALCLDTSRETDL
Compound,pIC50 (hKv1.5),melting point [°C]
"O=C(NCCO)C1CCCN(c2nc(NCc3ccccn3)c3c(-c4ccccc4)csc3n2)C1 (racemic) [Racemate, 1-{5-Phenyl-4-[(pyridin-2-ylmethyl)-amino]-thieno[2,3-d]pyrimidin-2-yl}-piperidine-3carboxylic acid (2-hydroxy-ethyl)-amide]",8.05,190 to 194
"O=C(NCCO)[C@@H]1CCCN(c2nc(NCc3ccccn3)c3c(-c4ccccc4)csc3n2)C1 [(R) enantiomer (Ic), (R)-1-{5-Phenyl-4-[(pyridin-2-ylmethyl)-amino]-thieno[2,3-d]pyrimidin-2-yl}-piperidine-3-carboxylic acid (2-hydroxy-ethyl)-amide]",8.30,71 to 76
"O=C(NCCO)[C@H]1CCCN(c2nc(NCc3ccccn3)c3c(-c4ccccc4)csc3n2)C1 [(S) enantiomer (Ib), (S)-1-{5-Phenyl-4-[(pyridin-2-ylmethyl)-amino]-thieno[2,3-d]pyrimidin-2-yl}-piperidine-3-carboxylic acid (2-hydroxy-ethyl)-amide]",7.57,61 to 65
